The values below are quoted from earlier work in patent US20140234430A1, “PHARMACEUTICAL METHODS AND TOPICAL COMPOSITIONS CONTAINING ACITRETIN” (DOUGLAS PHARMACEUTICALS LTD., priority 2011, published 2014).

Structures are written as SMILES.

As for `COc1cc(C)c(/C=C/C(C)=C/C=C/C(C)=C/C(=O)O)c(C)c1C` [acitretin, (2E,4E,6E,8E)-9-(4-methoxy-2,3,6-trimethylphenyl)-3,7-dimethylnona-2,4,6,8-tetraenoic acid], the Solubility in alcohols result (suitable alcohols) is “quite poorly soluble”. For the same compound, the Solubility in water entry (water) is “very poorly soluble”.
